Measurements from patent US9044428B2, “Neuritogenic peptides” (Neoloch ApS, priority 2005, dated 2015).
Peptide text beside a SMILES is read from it.

Legend:
[1] = Hematocrit in rats after the brain lesion; type: in vivo; settings: rat after brain lesion, peptide 1 mg/100 g s.c., p>0.02
Experimental: (§1) Male rats (wistar) (tree groups, 5 rats/group) were injected s.c with different Epo peptides (each group individually with Epo 2, Epo 3 or Epo 4) three times according to the scheme: • 1. the day before the lesion: a single injection of a peptide per animal (1 mg/100 g animal weight); • 2. the 1st day after the lesion: a single injection of a peptide per animal (1 mg/100 g animal weight): • 3. the 2nd day after the lesion: a single injection of a peptide per animal (1 mg/100 g animal weight); • 4. the 3rd day after the lesion: animals are sacrificed.
(§2) Control groups were a group (4 rats) injected with the vehicle (water) and a group (4 rats), injected with human recombinant EPO (hrEPO) in dose 50 μg/100 g rat according to the above scheme.

[2] = target: T1, recombinant erythropoietin receptor (EPOR-Fc) (Homo sapiens, UniProt P19235); test: SPR binding of soluble EPOR-Fc to immobilized Epo 3 peptide
T1 construct: the chip was incubated with soluble recombinant EPOR-Fc under standard conditions
T1 sequence (P19235 25-250 limits assumed): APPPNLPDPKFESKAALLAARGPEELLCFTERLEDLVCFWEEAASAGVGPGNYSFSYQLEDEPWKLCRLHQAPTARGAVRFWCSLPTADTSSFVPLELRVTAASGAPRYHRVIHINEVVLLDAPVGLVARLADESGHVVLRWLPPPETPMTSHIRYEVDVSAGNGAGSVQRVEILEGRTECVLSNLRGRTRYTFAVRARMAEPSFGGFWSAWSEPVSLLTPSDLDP
Experimental: The binding of Epo 3 to EPOR-Fc was studied by SPR analysis. The Epo 3 peptide was immobilized on a chip and the chip was incubated with soluble recombinant EPOR-Fc under standard conditions. Three independent experiments were performed. […] The results of binding are shown on FIG. 16.

Primary cultures of CGN = test: Survival of CGN induced to undergo apoptosis (low KCl) in vitro; type: cell-based, rat; settings: apoptosis induced by reducing KCl to 5 mM, two days
Experimental: Primary cultures of CGN were plated at a density of 100 000 cells/cm^2 on poly-L-lysine coated 8-well permanox slides in Neurobasal-A medium (Gibco BRL) supplemented with 2% (v/v) B27, 0.5% (v/v) glutamax, 100 units/mL penicillin, 100 μg/mL streptomycin and KCl, making the final concentration of KCl in the medium 40 mm, Twenty-four hours after plating, Ara-C (Sigma-Aldrich) was added to a final concentration of 10 μm to avoid proliferation of glial cells, after which the neurons were allowed to differentiate for a further 6 days at 37° C. Apoptotic cell death was induced by washing twice and changing the medium to Basal Medium Eagle (BME; Gibco BRL) supplemented with 1% (v/v) glutamine, 100 U/mL, penicillin and 100 μg/mL streptomycin, 3.5 g d-glucose/L and 1% (v/v) sodium pyruvate (Gibco BRL) together with various concentrations of peptide. Thereby the concentration of potassium in the cultures was reduced to 5 mm KCl (D'Mello et al. 1993). Two days after induction of apoptosis, the cells were fixed with 4% (v/v) formaldehyde and stained with Hoechst 33258 as described for the survival assay employing hippocampal neurons.

rat brain after TBI [3] = test: Neuroplasticity and neurite outgrowth in vivo after TBI (PSA-NCAM and GAP-43 immunostaining); settings: for level of PSA-NCAM staining: area adjusted to the lesion and subventricular zone; for neurite outgrowth in vivo (GAP-43 immunostaining): cortical lesion area, choroid plexus, hippocampus, hypothalamus
Experimental: as §1, §2
(§3) A traumatic brain injury (TBI) was induced by applying dry ice (−78 C) to the extracranial surface of the skull for 60 sec, which induces a focal injury in the right fronto-parietal cortex. Three days after the lesion (3 dpl) rats were deeply anesthetized with Brietal (10 mg/100 gr) and fixed by transcardial perfusion with 0.9% NaCl and 0.3% heparin, followed by Zamboni's fixative. The brains were removed, dehydrated according to the standard protocol, embedded in paraffin, and cut in 6-μm-thick frontal sections for further evaluation by immunohistochemistry and TUNEL.
(§4) For immunohistochemistry the sections of the brains were incubated overnight with polyclonal rabbit anti-cow GFAP, GAP-43, 8-oxoguanine, or PSA-NCAM antibodies 1:250 (Dakopatts). The primary antibodies were detected in the sections with biotinylated secondary antibodies followed by incubation with streptavidin-biotin-peroxidase (30 min). Afterwards, the sections were incubated with biotinylated tyramide and streptavidin-peroxidase complex (NEN, Life Science Products, USA, code NEL700A) prepared following the manufacturer recommendations, and visualized with 0.015% H2O2 in DAB/TBS for 10 min.

rat brain after TBI [4] = test: Programmed cell death after traumatic brain injury (TUNEL); type: in vivo; settings: s.c., 3 days after lesion
Experimental: as §1, §2
as §3, with “TUNEL. […]” for “TUNEL.”

[5] = system: human erythroleukemia cells TF-1; test: Proliferation of TF-1 cells (BrdU incorporation ELISA); type: cell-based; settings: for stimulation of haemopoietic cell proliferation (general conclusion): no concentration stated
Experimental: Evaluation of the effect of four EPO-derived peptides on cell proliferation was performed using a TF-1 cell line. The TF-1 cell line was established from sample from patient with severe pancytopenia (human erythroleukemia). The growth of these cells is dependent of the presence of the granulocyte-macrophage colony-stimulating factor (GM-SCF). The TF-1 cells were grown in Dulbecco's Modified Eagle Medium (DMEM) supplemented with 10% (v/v) heat inactivated foetal calf serum (FCS), 2 mM GlutaMAX, penicillin (100 U/ml) and streptomycin (100 μg/ml), 10 mM HEPES, 1 mM sodium pyruvate, 1% fungizone. The growth medium was supplemented with 2 ng/ml GM-CSF. Cell proliferation was determined using a Biotrak ELISA system, version 2 (Amersham Biosciences, UK). The procedure is based on measurement of the levels of 5-bromo-2′-deoxyuridine (BrdU) incorporation during DNA synthesis in proliferating cells. Briefly, passaged cells were washed once with starving medium (culturing medium without GM-CSF) then plated in 96-well Nuclon culture microplates (Nuno, Denmark) at a density of 5000 cells/well and grown in starving medium containing 0.008, 0.04, 0.2, 1.0, 5.0, 25 and 50 μg/ml of the tested compounds. As a positive control the human recombinant erythropoietin (EPO) (Calbiochem, Denmark) was used in a concentration of 2.0 ng/ml. TF-1 cells were allowed to grow in the presence of peptides for 24 h and than to all wells (except negative controls) BrdU was added to a final concentration of 10 μM and cultures were further incubated for 24 h, fixed and processed according to the procedure recommended by manufacturer, […]

rat brain after TBI [6] = test: Oxidative DNA damage after traumatic brain injury (8-oxoguanine immunostaining); type: in vivo; settings: s.c., 3 days after lesion
Experimental: as §1, §2, §3, §4

[7] = system: Cerebellar granule neuron (CGN) cultures; test: Stimulation of neurite outgrowth from cerebellar granule neurons in vitro; type: cell-based, rat; settings: 24 h treatment of CGN cultures
Description: Cerebellar granule neuron (CGN) cultures were obtained from 3-4-day-old Wistar rats (Charles River, Sulzfeld, Germany, or Moellegaard, Denmark) as previously described by Schousboe et al. (1989). Briefly, the cerebella were dissected, cleared of meninges and blood vessels, chopped, and trypsinized. The neurons were washed in the presence of DNAse 1 and soybean trypsin inhibitor (Sigma), and cellular debris was pelleted by centrifugation; the cells resuspended and then plated on poly-L-lysine (PLL; Sigma)-coated or uncoated microtiter plates in Neurobasal medium supplemented with 4% (w/v) bovine serum albumin (BSA), 2% (v/v) B27, 1% (v/v) glutamax, 100 U/ml penicillin, 100 gi/ml streptomycin, 4.5 g D-glucose/L (Sigma) 0.25% (v/v) sodium pyruvate, and 2% (v/v) 1 M HEPES (Gibco BRL).

rat brain after TBI [8] = test: Astrocytosis after traumatic brain injury (GFAP IHC); type: in vivo; settings: s.c., 3 days after lesion
Experimental: as §1, §2
A traumatic brain injury (TBI) was induced by applying dry ice (−78 C) to the extracranial surface of the skull for 60 sec, which induces a focal injury in the right fronto-parietal cortex. […]
For immunohistochemistry the sections of the brains were incubated overnight with polyclonal rabbit anti-cow GFAP, GAP-43, 8-oxoguanine, or PSA-NCAM antibodies 1:250 (Dakopatts). The primary antibodies were detected in the sections with biotinylated secondary antibodies followed by incubation with streptavidin-biotin-peroxidase (30 min). […]

[9] = Epo 3 ionic bonded with the chip, soluble EPOR-Fc, three experiments

Compound | effect on the hematocrit vs control [1] | protection of CGN induced to undergo apoptosis (neuronal survival) (Primary cultures of CGN) | level of PSA-NCAM staining (rat brain after TBI [3]) | neurite outgrowth in vivo (GAP-43 immunostaining) (rat brain after TBI [3]) | TUNEL-positive apoptotic cells around the necrotic cavity (rat brain after TBI [4]) | proliferation of TF-1 cells ([5]; concentration of 50 μg/ml) | stimulation of haemopoietic cell proliferation (general conclusion) [5] | 8-oxoguanine positive cells (oxidative DNA damage) (rat brain after TBI [6]) | neurite outgrowth from CGN (neuritogenic activity) [7] | astrocytosis (reactive astrogliosis) by GFAP IHC (rat brain after TBI [8]) | also measured
CC(C)C[C@H](NC(=O)CNC(=O)[C@H](CO)NC(=O)[C@@H](NC(=O)[C@H](C)NC(=O)[C@H](CCCCN)NC(=O)[C@H](CC(=O)O)NC(=O)[C@@H](NC(=O)[C@H](Cc1c[nH]cn1)NC(=O)[C@H](CC(C)C)NC(=O)[C@@H](N)CCC(N)=O)C(C)C)C(C)C)C(=O)N[C@@H](CCCNC(=N)N)C(=O)N[C@@H](CO)C(=O)N[C@@H](CC(C)C)C(=O)N[C@H](C(=O)N[C@H](C(=O)N[C@@H](CC(C)C)C(=O)N[C@@H](CC(C)C)C(=O)N[C@@H](CCCNC(=N)N)C(=O)N[C@@H](C)C(=O)O)[C@@H](C)O)[C@@H](C)O [Epo3] (H-QLHVDKAVSGLRSLTTLLRA-OH) | no statistically significant effect | strongest neuroprotective effect | significantly increases the level of PSA-NCAM staining | stimulates neurite outgrowth | lowest level of apoptosis | stimulate proliferation of TF-1 cells | most potent among them | lowest number of the 8-oxoguanine positive cells | capable of stimulating neurite outgrowth | – | effect on the hematocrit vs control ([1]; listed as Epo 3): no significant effect; binding to EPOR ([2]; Epo 3 covalently bonded to the chip): does not bind to EPOR; association rate ka [2, 9]: 2.1*10^4+−1.4*10^4; dissociation rate kd [2, 9]: 4.33*10^−5+−1.62*10^−5; kon ([2]; Epo 3 ionic bonded with the chip, soluble EPOR-Fc, three experiments, read-out: association rate ka): 21000 M⁻¹ s⁻¹; koff ([2]; Epo 3 ionic bonded with the chip, soluble EPOR-Fc, three experiments, read-out: dissociation rate kd): 4.33e-05 s⁻¹; Kd ([2]; Epo 3 ionic bonded with the chip, soluble EPOR-Fc, read-out: overall binding affinity of EPOR to Epo3): 4.48 nM; neurite outgrowth from CGN (neuritogenic activity) ([7]; listed as SEQ ID NO: 3): strongly induce neurite outgrowth
NENITVPDTKVNFYAWKR (Derived from human erythropoietin, Swiss Prot P01588) [Epo2, peptide fragment derived from human erythropoietin] | no statistically significant effect | strongest neuroprotective effect | – | stimulates neurite outgrowth | – | – | – | lowest number of the 8-oxoguanine positive cells | capable of stimulating neurite outgrowth | mast pronounced increase in reactive astrogliosis | effect on the hematocrit vs control ([1]; listed as Epo 2): no significant effect; proliferation of TF-1 cells ([5]; concentrations of 25 and 50 μg/ml): stimulates proliferation of TF-1 cells; neurite outgrowth from CGN (neuritogenic activity) ([7]; listed as SEQ ID NO: 2): strongly induce neurite outgrowth
RVYSNFLRGKLKLYTGEA (Derived from human erythropoietin, Swiss Prot P01588) [Epo4, peptide fragment derived from human erythropoietin] | no statistically significant effect | strongest neuroprotective effect | significantly increases the level of PSA-NCAM staining | – | lowest level of apoptosis | stimulate proliferation of TF-1 cells | most potent among them | significantly reduced oxidative DNA damage | capable of stimulating neurite outgrowth | least effect | neurite outgrowth from CGN (neuritogenic activity) ([7]; listed as SEQ ID NO: 4): strongly induce neurite outgrowth
DSRVLERYLLEAKE (Derived from human erythropoietin, Swiss Prot P01588) [Epo1, peptide fragment derived from human erythropoietin] | – | – | – | – | – | stimulates proliferation of TF-1 cells | – | – | – | – | proliferation of TF-1 cells ([5]; concentration of 0.2 μg/ml): probably had a stimulatory effect; neurite outgrowth from CGN (neuritogenic activity) ([7]; listed as SEQ ID NO: 1): do net have any neuritogenic activity
